Measurements reported in patent publication US8785457B2 (Cellzome Limited, priority 2009, dated 2014).
Like-named read-outs stand apart in the source and are kept apart here.

Tests used:
[1] = biological target: T1, DNA-dependent protein kinase (DNA-PK) (Homo sapiens, UniProt P78527); experiment: kinobeads assay, DNA-PK; type: binding
T1 construct: endogenous in cells; host or cells: Jurkat, clone E6-1 (ATCC TIB-152) cell lysate
In short: (§1)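 Competitive binding in Jurkat cell lysate (5 mg/mL protein) against beads carrying an immobilized phenylmorpholin-chromen ligand, in DP buffer pH 7.4 with NP40, DTT and NaF. Bead-bound kinases were eluted and quantified by antibody dot blot with infrared detection, and IC50 was taken from dose-response curves of a 1:3 dilution series.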

PI3K delta (PI3 Kd) = biological target: T2, PI3K delta (PI3 Kd) (Homo sapiens, UniProt O00329); experiment: kinobeads assay, PI3K delta; type: binding; settings: kinobeads assay, read-out: Inhibition values (IC50) PI3Kd
T2 construct: endogenous in cells; host or cells: Jurkat, clone E6-1 (ATCC TIB-152) cell lysate
T2 sequence (O00329 whole entry): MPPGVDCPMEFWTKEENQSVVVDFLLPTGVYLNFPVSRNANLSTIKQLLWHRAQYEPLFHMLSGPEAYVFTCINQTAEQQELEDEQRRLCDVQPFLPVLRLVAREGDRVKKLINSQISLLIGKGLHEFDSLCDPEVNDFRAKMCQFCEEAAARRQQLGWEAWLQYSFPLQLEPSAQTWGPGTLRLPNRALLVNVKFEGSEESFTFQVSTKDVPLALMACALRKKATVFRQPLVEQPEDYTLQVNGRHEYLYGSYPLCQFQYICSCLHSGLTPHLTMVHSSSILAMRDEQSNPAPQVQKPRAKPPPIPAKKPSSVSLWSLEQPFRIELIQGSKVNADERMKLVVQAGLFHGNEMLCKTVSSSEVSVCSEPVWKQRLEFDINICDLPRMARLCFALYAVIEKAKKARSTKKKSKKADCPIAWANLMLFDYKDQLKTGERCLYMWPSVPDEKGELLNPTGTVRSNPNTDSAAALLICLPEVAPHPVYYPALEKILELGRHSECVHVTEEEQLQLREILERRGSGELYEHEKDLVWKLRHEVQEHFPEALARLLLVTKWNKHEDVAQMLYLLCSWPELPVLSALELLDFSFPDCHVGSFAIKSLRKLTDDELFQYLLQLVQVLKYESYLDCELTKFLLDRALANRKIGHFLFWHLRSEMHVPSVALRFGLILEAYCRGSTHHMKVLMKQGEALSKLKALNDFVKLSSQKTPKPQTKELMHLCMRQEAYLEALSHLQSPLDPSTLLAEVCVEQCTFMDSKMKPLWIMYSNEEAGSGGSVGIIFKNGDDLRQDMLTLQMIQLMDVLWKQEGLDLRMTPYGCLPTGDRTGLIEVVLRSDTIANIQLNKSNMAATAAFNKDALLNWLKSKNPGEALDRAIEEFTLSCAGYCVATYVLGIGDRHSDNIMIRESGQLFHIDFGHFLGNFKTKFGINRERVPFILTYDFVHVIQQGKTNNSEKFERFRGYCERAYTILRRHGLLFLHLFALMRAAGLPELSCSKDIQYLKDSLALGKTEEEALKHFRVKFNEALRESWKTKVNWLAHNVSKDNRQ
T2 sequence (P27986 whole entry partner): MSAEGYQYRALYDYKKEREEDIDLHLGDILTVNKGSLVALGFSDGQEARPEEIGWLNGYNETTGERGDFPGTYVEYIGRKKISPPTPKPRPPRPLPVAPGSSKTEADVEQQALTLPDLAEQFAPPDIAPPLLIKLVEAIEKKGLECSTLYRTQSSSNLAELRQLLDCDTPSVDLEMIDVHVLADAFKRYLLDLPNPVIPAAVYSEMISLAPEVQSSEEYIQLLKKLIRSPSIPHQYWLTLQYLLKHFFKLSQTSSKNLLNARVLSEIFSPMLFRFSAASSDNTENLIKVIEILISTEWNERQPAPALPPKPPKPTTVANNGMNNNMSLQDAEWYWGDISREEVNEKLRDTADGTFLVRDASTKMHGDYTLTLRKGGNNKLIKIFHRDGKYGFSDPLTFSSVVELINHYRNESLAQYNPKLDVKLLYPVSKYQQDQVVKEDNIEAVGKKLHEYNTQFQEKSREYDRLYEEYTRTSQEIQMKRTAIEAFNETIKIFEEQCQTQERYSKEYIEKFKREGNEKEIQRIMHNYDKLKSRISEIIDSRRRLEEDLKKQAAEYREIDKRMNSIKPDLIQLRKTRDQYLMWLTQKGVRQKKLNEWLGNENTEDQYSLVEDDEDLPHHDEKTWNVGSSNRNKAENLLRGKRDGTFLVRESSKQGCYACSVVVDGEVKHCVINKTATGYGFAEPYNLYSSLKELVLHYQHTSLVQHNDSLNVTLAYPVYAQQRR
In short: as §1

[2] = kinobeads assay, Table 4, read-out: Inhibition values (IC50) DNA-PK
[3] = kinobeads assay, Table 6, read-out: Inhibition values (IC50) DNAPK

Row | Structure (SMILES) | IC50 [1, 2] [µM] | IC50 [1, 3] [µM] | IC50 (PI3K delta (PI3 Kd); Table 4) [µM] | IC50 (PI3K delta (PI3 Kd); Table 6) [µM] | IC50 ([1]; Further Kinobeads Data, read-out: DNAPK) [µM]
1 | C[C@H]1COCCN1c1nc(-c2ccc(NC(=O)NC3CCC3)cc2)nc2c1CN(C)C2 [Example 55, (S)-1-cyclobutyl-3-(4-(6-methyl-4-(3-methylmorpholino)-6,7-dihydro-5H-pyrrolo[3,4-d]pyrimidin-2-yl)phenyl)urea] | > 10 | > 10 | – | – | –
2 | CCNC(=O)Nc1ccc(-c2nc3c(c(N4CCOC[C@@H]4C)n2)CN(C(C)=O)C3)cc1 [Example 18, (S)-1-(4-(6-acetyl-4-(3-methylmorpholino)-6,7-dihydro-5H-pyrrolo[3,4-d]pyrimidin-2-yl)phenyl)-3-ethylurea] | > 10 | > 10 | 1 to 10 | 1 to 10 | –
3 | CCNC(=O)Nc1ccc(-c2nc3c(c(N4CCOC[C@@H]4C)n2)CN(C(=O)C(C)(C)C)C3)cc1 [Example 22, (S)-1-ethyl-3-(4-(4-(3-methylmorpholino)-6-pivaloyl-6,7-dihydro-5H-pyrrolo[3,4-d]pyrimidin-2-yl)phenyl)urea] | > 10 | > 10 | > 10 | > 10 | –
4 | CCNC(=O)Nc1ccc(-c2nc3c(c(N4CCOC[C@@H]4C)n2)CN(CC)C3)cc1 [Example 39, (S)-1-ethyl-3-(4-(6-ethyl-4-(3-methylmorpholino)-6,7-dihydro-5H-pyrrolo[3,4-d]pyrimidin-2-yl)phenyl)urea] | > 10 | > 10 | > 10 | > 10 | –
5 | C[C@H]1COCCN1c1nc(-c2ccc(NC(=O)NC3CC3)cc2)nc2c1CN(C)C2 [Example 38, (S)-1-cyclopropyl-3-(4-(6-methyl-4-(3-methylmorpholino)-6,7-dihydro-5H-pyrrolo[3,4-d]pyrimidin-2-yl)phenyl)urea] | > 10 | > 10 | > 10 | > 10 | –
6 | CC(C)NC(=O)Nc1ccc(-c2nc3c(c(N4CCOC[C@@H]4C)n2)CN(CC2CC2)C3)cc1 [Example 50, (S)-1-(4-(6-(cyclopropylmethyl)-4-(3-methylmorpholino)-6,7-dihydro-5H-pyrrolo[3,4-d]pyrimidin-2-yl)phenyl)-3-isopropylurea] | > 10 | > 10 | > 10 | > 10 | –
7 | C[C@H]1COCCN1c1nc(-c2ccc(NC(N)=O)cc2)nc2c1CN(CC1CC1)C2 [Example 48, (S)-1-(4-(6-(cyclopropylmethyl)-4-(3-methylmorpholino)-6,7-dihydro-5H-pyrrolo[3,4-d]pyrimidin-2-yl)phenyl)urea] | > 10 | > 10 | 1 to 10 | 1 to 10 | –
8 | CCNC(=O)Nc1ccc(-c2nc3c(c(N4CCOC[C@@H]4C)n2)CNCC3)cc1 [Example 12, (S)-1-ethyl-3-(4-(4-(3-methylmorpholino)-5,6,7,8-tetrahydropyrido[4,3-d]pyrimidin-2-yl)phenyl)urea] | > 10 | > 10 | > 10 | > 10 | –
9 | CNC(=O)Nc1ccc(-c2nc3c(c(N4CCOC[C@@H]4C)n2)CCNC3)cc1 [Example 16, (S)-1-methyl-3-(4-(4-(3-methylmorpholino)-5,6,7,8-tetrahydropyrido[3,4-d]pyrimidin-2-yl)phenyl)urea] | > 10 | > 10 | > 10 | > 10 | –
10 | CC(C)N1Cc2nc(-c3ccc(NC(=O)NC4CC4)cc3)nc(N3CCOC[C@@H]3C)c2C1 [Example 46, (S)-1-cyclopropyl-3-(4-(6-isopropyl-4-(3-methylmorpholino)-6,7-dihydro-5H-pyrrolo[3,4-d]pyrimidin-2-yl)phenyl)urea] | > 10 | > 10 | > 10 | > 10 | –
11 | C[C@H]1COCCN1c1nc(-c2ccc(NC(=O)NC3CC3)cc2)nc2c1CN(CC1CC1)C2 [Example 30] | > 10 | > 10 | > 10 | > 10 | –
12 | CCNC(=O)Nc1ccc(-c2nc3c(c(N4CCOC[C@@H]4C)n2)CN(C=O)C3)cc1 [Example 8, (S)-1-ethyl-3-(4-(6-formyl-4-(3-methylmorpholino)-6,7-dihydro-5H-pyrrolo[3,4-d]pyrimidin-2-yl)phenyl)urea] | > 10 | > 10 | > 10 | > 10 | –
13 | C[C@H]1COCCN1c1nc(-c2ccc(NC(=O)NC3CC3)cc2)nc2c1CNCC2 [Example 11, (S)-1-cyclopropyl-3-(4-(4-(3-methylmorpholino)-5,6,7,8-tetrahydropyrido[4,3-d]pyrimidin-2-yl)phenyl)urea] | > 10 | > 10 | > 10 | > 10 | –
14 | CC(C)C(=O)N1Cc2nc(-c3ccc(NC(=O)NC4CC4)cc3)nc(N3CCOC[C@@H]3C)c2C1 [Example 44, (S)-1-cyclopropyl-3-(4-(6-isobutyryl-4-(3-methylmorpholino)-6,7-dihydro-5H-pyrrolo[3,4-d]pyrimidin-2-yl)phenyl)urea] | > 10 | > 10 | > 10 | > 10 | –
15 | CCNC(=O)Nc1ccc(-c2nc3c(c(N4CCOC[C@@H]4C)n2)CN(S(C)(=O)=O)C3)cc1 [Example 32, (S)-1-ethyl-3-(4-(4-(3-methylmorpholino)-6-(methylsulfonyl)-6,7-dihydro-5H-pyrrolo[3,4-d]pyrimidin-2-yl)phenyl)urea] | > 10 | > 10 | > 10 | > 10 | –
16 | C[C@H]1COCCN1c1nc(-c2ccc(NC(=O)NC3CC3)cc2)nc2c1CCNC2 [Example 15, (S)-1-cyclopropyl-3-(4-(4-(3-methylmorpholino)-5,6,7,8-tetrahydropyrido[3,4-d]pyrimidin-2-yl)phenyl)urea] | > 10 | > 10 | > 10 | > 10 | –
17 | C[C@H]1COCCN1c1nc(-c2ccc(NC(=O)NC3CC3)cc2)nc2c1CN(C(=O)C1CC1)C2 [Example 17, (S)-1-(4-(6-(cyclopropanecarbonyl)-4-(3-methylmorpholino)-6,7-dihydro-5H-pyrrolo[3,4-d]pyrimidin-2-yl)phenyl)-3-cyclopropylurea] | > 10 | > 10 | > 10 | > 10 | –
18 | COC(=O)N1Cc2nc(-c3ccc(NC(=O)NCCF)cc3F)nc(N3CCOCC3)c2C1 [Example 169, Methyl 2-(2-fluoro-4-(3-(2-fluoroethyl)ureido)phenyl)-4-morpholino-5H-pyrrolo[3,4-d]pyrimidine-6(7H)-carboxylate] | – | – | – | – | > 10
19 | CCN1Cc2nc(-c3ccc(NC(=O)NC4CC4)cc3)nc(N3CCOC[C@@H]3C)c2C1 [Example 36, (S)-1-cyclopropyl-3-(4-(6-ethyl-4-(3-methylmorpholino)-6,7-dihydro-5H-pyrrolo[3,4-d]pyrimidin-2-yl)phenyl)urea] | > 10 | > 10 | > 10 | > 10 | –
20 | CCCNC(=O)Nc1ccc(-c2nc3c(c(N4CCOC[C@@H]4C)n2)CN(CC2CC2)C3)cc1 [Example 49, (S)-1-(4-(6-(cyclopropylmethyl)-4-(3-methylmorpholino)-6,7-dihydro-5H-pyrrolo[3,4-d]pyrimidin-2-yl)phenyl)-3-propylurea] | > 10 | > 10 | > 10 | > 10 | –
